Results reported in PMC6648297 (ACS Omega, 2019).

Biological target: Pin1 (Homo sapiens, UniProt Q13526)
Experiment: SensoLyte Green fluorimetric PPIase activity assay, dose-response
Type: biochemical

Chain of Pin1 (Q13526 whole entry): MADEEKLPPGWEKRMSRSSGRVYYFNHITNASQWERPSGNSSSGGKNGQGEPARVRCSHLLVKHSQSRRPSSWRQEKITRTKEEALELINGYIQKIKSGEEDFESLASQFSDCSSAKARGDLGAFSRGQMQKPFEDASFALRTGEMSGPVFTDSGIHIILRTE

EC50: ~10 µM
SMILES: CCOC(=O)CN1C(=O)c2ccc3c4c(ccc(c24)C1=O)C(=O)N(CC(=O)OCC)C3=O [PiB]
